Experimental data published in patent US20240325340A1, “ISOFORM SPECIFIC AGONISTS TARGETING AKT KINASE” (Thomas Jefferson University, priority 2021, published 2024).
“Also recorded” adds a separate entry of the source.

Legend:
Akt2-LT WT = target: T1, Akt2-LT WT (Homo sapiens, UniProt P31751); assay: Phosphorylation of heterologously expressed Akt2-LT WT in H9C2 myoblasts; assay type: cell-based; conditions: serum-free media, 2 hr
T1 construct: expressed in transfected cells; host or cells: H9C2 myoblasts
T1 sequence (P31751 whole entry): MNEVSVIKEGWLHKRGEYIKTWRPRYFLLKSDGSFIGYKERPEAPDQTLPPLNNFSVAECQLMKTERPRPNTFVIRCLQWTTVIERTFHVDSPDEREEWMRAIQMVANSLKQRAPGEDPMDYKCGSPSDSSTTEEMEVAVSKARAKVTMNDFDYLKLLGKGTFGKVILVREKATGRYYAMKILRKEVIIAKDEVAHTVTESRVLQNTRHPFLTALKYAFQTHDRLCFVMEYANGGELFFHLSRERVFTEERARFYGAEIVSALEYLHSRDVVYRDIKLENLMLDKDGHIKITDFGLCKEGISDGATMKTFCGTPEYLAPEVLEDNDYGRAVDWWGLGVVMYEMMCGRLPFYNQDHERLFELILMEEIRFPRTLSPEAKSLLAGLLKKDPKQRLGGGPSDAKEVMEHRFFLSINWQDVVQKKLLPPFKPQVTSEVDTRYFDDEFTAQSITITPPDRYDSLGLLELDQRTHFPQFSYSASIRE
Procedure: (§1) FIGS. 2A-2B: illustrate the finding that T625's position 6 analogues differentially activate Akt and induce cellular toxicity. FIG. 2A: To distinguish heterologous-expressed Akt from endogenous Akt, a 41 amino acid large tag containing the HA-epitope was fused with wild type Akt2 (Akt2-LT WT). H9C2 myoblasts over-expressing Akt2-LT WT were treated with insulin or indicated compounds in serum-free media for 2 hr. Phosphorylation of T309 and total Akt2 are shown. FIG. 2B: Cell images show A549 AT2 cell morphology after 24 hr of drug treatment.

A549 AT2 cell = A549 AT2 cell morphology after 24 hr of drug treatment; assay type: cell-based, human; conditions: A549 AT2 cells
Procedure: as §1

A549 cells = assay: Cytotoxicity by release of lactate dehydrogenase (LDH) in A549 cells; assay type: cell-based, human; conditions: 40 μM, 24 hours, serum-free media
Procedure: Cytotoxicity was determined by the release of lactate dehydrogenase (LDH) into cell culture media. A549 cells were incubated with 40 μM of each compound for 24 hours in serum-free media (n=3 for each compound). FIG. 8B: A visual assessment of cell morphology after 24 hrs treatment with 40 μM of each compound in serum-free media. 100× images are shown.

Hacat cells [1] = assay: Cellular toxicity / cell morphology in Hacat cells after 24 hrs; assay type: cell-based, human; conditions: 40 μM
Hacat cells [2] = assay: Human keratinocyte migration (cell-free gap) assay; assay type: cell-based; conditions: 40 μM, 22 hr, serum-starved
Procedure: FIGS. 11A-11B illustrates the finding that Akt activators in human keratinocyte cell line induce VEGF secretion and enhanced cell migration. FIG. 11A: Human keratinocyte line, HaCat cells, was incubated with 20 μM of each Akt activators for 24 hours. Insulin (3.5 μg/ml) and IGF1 (100 ng/mL) treatment were used as positive control. […] HaCaT cells were plated into silicone insert molds with a […] defined cell-free gap (Ibidi) and serum-starved overnight. Then, the mold barrier was removed and cells were treated with 40 μM T620. After 22 hr, the gap spaces were imaged at 100×. Two images of control and four images of T620 treated gap spaces are shown.

Akt [3] = assay: Mouse cardiac ischemia-reperfusion injury model, Akt activation in heart; assay type: in vivo; conditions: directly injected or intraperitoneally injected after ischemic-ligation
Procedure: FIG. 13A: A schematic of ischemic-reperfusion procedure indicating drug injection time and heart harvest time. FIG. 13B: Illustrates immunoblots of pS473, Akt phospho-substrate, pPRAS40 and GAPDH in the WES auto-western system. After ischemic-ligation, T625 (0.8 μg in 20 μl PBS) were directly injected at three spots of exposed ventricular wall. Injected insulin was used as a control. FIG. 13C: Illustrates immunoblots of pT308, total Akt (tAkt) and GAPDH and quantified pT308/tAkt ratio. After ischemic-ligation, T620 and T625 were directly injected or intraperitoneally injected.
(§2) A FlexiVent system (SCIREQ) was used to deliver Akt activator, T625, directly to mouse lung. This procedure closely mimics the clinical application of inhaled insulin. […] Akt activators were also administered in the setting of mouse cardiac ischemia-reperfusion injury model (FIGS. 13A-13C). T625 was directly injected into the left ventricular free wall at the time of ischemic ligation of exteriorized heart. Also, to mimic clinical use, (IP) Akt activators were intraperitoneally injected within 10 min after ischemia initiation. It was shown that both directly applied and intraperitoneally injected Akt activators activated Akt in the heart. Finally, a splinted murine excisional wound model that mimic human wound healing was used. […]

Akt [4] = assay: Splinted murine excisional skin wound model, topical treatment; assay type: in vivo, mouse; conditions: 20 μL of 40 μM applied within the wound silicone circle, 20 min
Procedure: FIGS. 14A-14B illustrate the use of an Akt activator as topical treatment for healing mouse skin wound. […] 20 μL of indicated compounds were applied within the skin wound silicone circle for 20 min. Wound tissues were harvested and blotted with anti-Akt pS473 and GAPDH using the Proteinsimple WES system. Growth factor (GF) mixture (insulin, PDGF and IGF1 growth factor) or 40 μM T620 in corn oil or in PBS as vehicles. […] Images of WT mouse skin wound after vehicle (0.7% DMSO in PBS) or 40 μM T620 treatment at Day 3. Wound images and hematoxylin sections showing wound edge and wound bed are shown. Scale bar=400 μm.
as §2

cells = assay: Cellular toxicity (cells not specified); assay type: cell-based

In the case of N#CC1=C(N)Oc2ccc([N+](=O)[O-])cc2C1C(C#N)C#N (centres unmarked) [T620, 2-(2-amino-3-cyano-6-nitro-4H-chromen-4-yl)propanedinitrile], the “Akt activation in cells (phosphorylation of T309 of Akt2-LT WT)” value (Akt2-LT WT) is reported as “preserved Akt activation; also recorded: activate Akt”, the “cellular toxicity (cell morphology)” value (A549 AT2 cell) is reported as “greatly reduced toxicity” and the “cellular toxicity (LDH release)” value (A549 cells) is reported as “low toxicity; also recorded: failed to show significant cellular toxicity; also recorded: reduced cellular toxicity”. For the same compound, the cellular toxicity (Hacat cells [1]) was “failed to show significant cellular toxicity”, the keratinocyte migration (Hacat cells [2]) was “enhance human keratinocyte migration” and the “Akt activation in mouse heart during ischemia-reperfusion” value (Akt [3]) was “enhanced Akt activation in mouse heart”. For the same compound, the “Akt activation (pS473) within mouse skin wounds” value (Akt [4]) was “activated Akt within mouse skin wounds” and the cellular toxicity (cells) was “reduced toxicity”.
